Measurements reported in patent US8372799B2, “Reverse protein” (Apeptico Forschung und Entwicklung GmbH, priority 2007, dated 2013).

Biological target: T1, epithelial sodium channels (Homo sapiens, UniProt P37088+P51168+P51170)
T1 construct: endogenous in cells; host or cells: A549 human lung epithelial cells (ATCC CCL-185)
T1 sequence (P37088 1-669): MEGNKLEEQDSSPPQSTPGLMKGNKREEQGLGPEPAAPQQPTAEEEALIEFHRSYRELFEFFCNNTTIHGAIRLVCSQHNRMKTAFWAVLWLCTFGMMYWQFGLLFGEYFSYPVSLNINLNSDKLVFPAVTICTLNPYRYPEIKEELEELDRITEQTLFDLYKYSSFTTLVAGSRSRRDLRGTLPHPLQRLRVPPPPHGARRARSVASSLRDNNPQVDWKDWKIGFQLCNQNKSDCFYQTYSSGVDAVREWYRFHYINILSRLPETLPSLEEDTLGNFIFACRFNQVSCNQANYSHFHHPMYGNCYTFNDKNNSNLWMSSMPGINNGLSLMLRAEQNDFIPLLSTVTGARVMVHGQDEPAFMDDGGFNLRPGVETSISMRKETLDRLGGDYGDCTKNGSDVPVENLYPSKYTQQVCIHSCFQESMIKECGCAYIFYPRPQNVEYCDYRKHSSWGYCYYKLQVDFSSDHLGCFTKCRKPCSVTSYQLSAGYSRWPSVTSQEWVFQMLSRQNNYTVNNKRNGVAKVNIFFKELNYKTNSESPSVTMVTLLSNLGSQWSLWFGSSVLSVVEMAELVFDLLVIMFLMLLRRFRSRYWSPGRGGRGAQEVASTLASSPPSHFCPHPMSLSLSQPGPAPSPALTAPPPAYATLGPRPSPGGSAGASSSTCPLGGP
T1 sequence (P51168 1-640): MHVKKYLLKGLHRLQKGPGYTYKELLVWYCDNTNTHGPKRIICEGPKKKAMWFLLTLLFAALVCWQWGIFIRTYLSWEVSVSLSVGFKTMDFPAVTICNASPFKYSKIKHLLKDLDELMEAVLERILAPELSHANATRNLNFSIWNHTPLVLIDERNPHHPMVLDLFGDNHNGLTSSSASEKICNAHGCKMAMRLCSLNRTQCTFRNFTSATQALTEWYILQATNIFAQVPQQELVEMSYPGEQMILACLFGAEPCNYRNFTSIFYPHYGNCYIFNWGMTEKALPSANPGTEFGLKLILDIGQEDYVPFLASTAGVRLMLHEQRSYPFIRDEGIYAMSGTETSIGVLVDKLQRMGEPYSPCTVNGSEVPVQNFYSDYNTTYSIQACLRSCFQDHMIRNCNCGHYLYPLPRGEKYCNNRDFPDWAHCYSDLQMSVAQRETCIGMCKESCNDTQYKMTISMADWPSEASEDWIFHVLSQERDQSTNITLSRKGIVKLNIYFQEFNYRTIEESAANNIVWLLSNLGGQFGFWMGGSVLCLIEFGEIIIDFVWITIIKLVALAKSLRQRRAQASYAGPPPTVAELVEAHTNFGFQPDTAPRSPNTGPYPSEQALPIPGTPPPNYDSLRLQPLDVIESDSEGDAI
T1 sequence (P51170 1-649): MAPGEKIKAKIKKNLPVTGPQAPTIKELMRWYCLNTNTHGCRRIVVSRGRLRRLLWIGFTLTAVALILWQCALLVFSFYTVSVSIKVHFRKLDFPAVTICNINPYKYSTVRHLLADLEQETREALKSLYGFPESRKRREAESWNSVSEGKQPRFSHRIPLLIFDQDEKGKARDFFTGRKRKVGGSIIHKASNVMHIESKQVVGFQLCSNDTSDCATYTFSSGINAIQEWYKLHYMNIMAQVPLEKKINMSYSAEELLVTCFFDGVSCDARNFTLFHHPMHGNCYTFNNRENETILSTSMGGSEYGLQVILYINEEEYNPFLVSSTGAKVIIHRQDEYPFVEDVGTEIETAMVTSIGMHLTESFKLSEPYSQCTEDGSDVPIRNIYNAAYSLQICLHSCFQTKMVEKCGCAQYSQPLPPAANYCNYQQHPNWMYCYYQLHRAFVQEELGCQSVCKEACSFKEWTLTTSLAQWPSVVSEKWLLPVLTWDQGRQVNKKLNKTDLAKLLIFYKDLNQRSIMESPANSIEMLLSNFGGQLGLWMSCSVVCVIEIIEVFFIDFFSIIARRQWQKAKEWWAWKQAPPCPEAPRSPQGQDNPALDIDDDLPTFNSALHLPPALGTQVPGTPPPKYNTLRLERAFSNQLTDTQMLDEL
Assay: Patch-clamp activation of sodium ion channels in A549 cells
Assay type: cell-based
Conditions: 10 μM amiloride
Text: Furthermore, a method common in laboratories is to detect the activation of ion channels by means of patch-clamp experiments, and this is described, for example, in Clunes M. T. et al, J Physiol Volume 557, No. 3, 809-819 (Jun. 15, 2004). For patch-clamp examinations of ion channels, a glass cannula is stretched thin and filled with a neutral buffer solution. The glass cannula (patch-clamp pipette) is carefully pressed onto an intact epithelial cell. A piece of membrane is located below the pipette. An electrical resistance is thereby produced between the interior of the pipette and the external solution. An electrode attached to a sensitive amplifier dips into the pipette solution.
The electrophysiological experiments were performed on human A549 cells (ATTC No. CCL-185). A549 cells are human lung epithelial cells which are involved in the diffusion of water and electrolytes in the lungs.
The cells were suspended in DMEM-F-12 medium with 1% penicillin-streptomycin and 10% fetal calf serum, transferred into plastic cell culture vessels and cultivated in the incubator with 95% air and 5% CO2 at 37° C. The medium was changed 2 to 3 times per week. The cells double within approx. 22 hours and a cell concentration of more than 7×10^4 cells per cm^2 was not exceeded.
Macroscopic currents and single-channel currents were discharged from A549 cells in the “whole cell” and “cell-attached” configuration of the “patch-clamp” technique (Hamill et al, Pflugers Arch. 1981, 391(2):85-100, 1981). For the current dissipations in the “whole cell” configuration, the following bath and electrode solutions were used:
Bath solution: 135 mM sodium methane sulfonate, 10 mM NaCl, 2.7 mM KCl, 1.8 mM CaCl2, 2 mM MgCl2, 5.5 mM glucose, and 10 mM HEPES, pH 7.4. […]
The cover slips with the cells cultivated thereon were transferred into a test bath with a capacity of 1 ml, fixed on the microscope table (Axiovert 100, 400-fold magnification), and the cells were superfused with the above-described bath solution. […] In the “cell-attached” configuration, the current can be measured through individual ion channels beneath the electrode tip. In the “whole cell” configuration, the membrane was penetrated beneath the electrode tip so that the current flowing through all ion channels of the cell could be measured. […] Upon obtaining a Gigaohm seal, a defined membrane retaining potential was applied via a pre-amplifier (CV-4 Headstage, Axon Instruments) and an amplifier (Axopatch 1D, Axon Instr.) and the current thereby flowing through the ion channels was measured.
The pulse protocol consisted of a hyperpolarization to −100 mV for 1 s at an interval of 5 s. […] The current dissipations thus obtained were stored and analyzed by means of the program PCLAMP 6.0. […]

## N=C(N)NC(=O)c1nc(Cl)c(N)nc1N [amiloride, reference compound]
  inhibition of ion channels (patch clamp): inhibition of ion channels
